Values of other authors, collected in patent US20210169839A1, “PEDIATRIC IMMEDIATE-RELEASE FORMULATION OF THE POTASSIUM CHANNEL OPENER EZOGABINE” (Xenon Pharmaceuticals Inc., priority 2019, published 2021).
Read-outs that look alike come from different tables or passages of the source.

How the values were obtained:
KCNQ2-DEE [1] = tested on: KCNQ2-DEE
rodent seizure models = settings: battery of rodent seizure models
KCNQ2-DEE [2] = tested on: KCNQ2-DEE; remark: listed apart in the source

CCOC(=O)Nc1ccc(NCc2ccc(F)cc2)cc1N [Ezogabine, 2-amino-4-(4-fluorobenzylamino)-1-ethoxycarbonylaminobenzene]
serious adverse effects (KCNQ2-DEE [1]; case report of 11 patients): No serious adverse effects were observed
improvement in seizures and/or development (KCNQ2-DEE [1]; infants treated before six months of age): three of the four
improvement in seizures and/or development (KCNQ2-DEE [1]; patients treated later than six months of age): two of the seven
anti-convulsant activity (rodent seizure models): broad spectrum activity
improvements in development or cognition (KCNQ2-DEE [2]; eight children with KCNQ2-DEE): all eight patients
Sustained improvement in seizure frequency (KCNQ2-DEE [2]; patients with at least weekly seizures): five of the six
